Where a name gives a salt, the structure may show the parent alone.
Target: LC3B (Homo sapiens, UniProt Q9GZQ8)
Experiment: Fluorescence Polarization (FP) Assay: displacement of FITC-labeled peptide from GST-LC3B
Type: binding
Conditions: Fluorescence Polarization assay; GST-LC3B 180 nM, FITC-labeled peptide 18 nM, 25° C.; read-out: IC50
Experimental: The compounds of the present invention for regulating the autophagy-related protein LC3B were tested by Fluorescence Polarization (FP) Assay.
Fluorescence Polarization (FP) Assay Test

| Structure (SMILES) | IC50 [µM] |
| --- | --- |
| CC(=O)NCCNC=C1C(=O)CC(c2ccccc2)CC1=O (stereo not drawn) [Compound 176, N-(2-(((2,6-dioxo-4-phenylcyclo-hexylidene)methyl)amino)ethyl) acetamide] | 100 to 1000 |
| NCCOC(=O)[C@H](Cc1ccccc1)NC=C1C(=O)CC(c2ccccc2)CC1=O (stereo partly drawn) [Compound 178, 2-aminoethyl ((2,6-dioxo-4-phenylcyclo-hexylidene)methyl)-L-phenylalaninate hydrochloride] | 15 to 100 |
| CONC=C1C(=O)CC(c2ccccc2)CC1=O (stereo not drawn) [Compound 180, 2-((methoxyamino)methylene)-5-phenylcyclo-hexane-1,3-dione] | 100 to 1000 |
| CC1(C)CC(=O)C(=CNCCN2CCN(CCO)CC2)C(=O)C1 [Compound 182, 2-(((2-(4-(2-hydroxyethyl)piperazin-1-yl)ethyl)amino)methylene)-5,5-dimethyl-cyclohexane-1,3-dione] | 100 to 1000 |
| O=C1/C(=C/NCCN2CCN(CCO)CC2)Oc2ccccc21 [Compound 183, 2-(((2-(4-(2-hydroxyethyl)piperazin-1-yl)ethyl)amino)methylene) benzofuran-3(2H)-one] | 100 to 1000 |
| Cc1cccc2[nH]cc(C3CC(=O)C(=CNCCN4CCN(CCO)CC4)C(=O)C3)c12 (stereo not drawn) [Compound 184, 2-(((2-(4-(2-hydroxyethyl)piperazin-1-yl)ethyl)amino)methylene)-5-(4-methyl-1H-indol-3-yl)cyclohexane-1,3-dione] | 100 to 1000 |
| O=C1CC(c2cccc3[nH]cc(C4CC4)c23)CC(=O)C1=CNCCN1CCN(CCO)CC1 (stereo not drawn) [Compound 185, 5-(3-cyclopropyl-1H-indol-4-yl)-2-(((2-(4-(2-hydroxyethyl)piperazin-1-yl)ethyl)amino)methylene) cyclohexane-1,3-dione] | < 3 |
| COc1ccc2[nH]cc(C3CC(=O)C(=CNCCN4CCN(CCO)CC4)C(=O)C3)c2c1 (stereo not drawn) [Compound 186, 2-(((2-(4-(2-hydroxyethyl)piperazin-1-yl)ethyl)amino)methylene)-5-(5-methoxy-1H-indol-3-yl)cyclohexane-1,3-dione] | 3 to 15 |
| O=C1CC(c2ccccc2-c2ccccc2)CC(=O)C1=CNCCN1CCN(CCO)CC1 (stereo not drawn) [Compound 187, 5-([1,1′-biphenyl]-2-yl)-2-(((2-(4-(2-hydroxyethyl)piperazin-1-yl)ethyl)amino)methylene) cyclohexane-1,3-dione] | < 3 |
| O=C1CC(c2ccccc2-c2ccncc2)CC(=O)C1=CNCCN1CCN(CCO)CC1 (stereo not drawn) [Compound 188, 2-(((2-(4-(2-hydroxyethyl)piperazin-1-yl)ethyl)amino)methylene)-5-(2-(pyridin-4-yl)phenyl) cyclohexane-1,3-dione] | 3 to 15 |
| O=C1CC(c2ccccc2C2CC2)CC(=O)C1=CNCCN1CCN(CCO)CC1 (stereo not drawn) [Compound 189, 5-(2-cyclopropylphenyl)-2-(((2-(4-(2-hydroxyethyl)piperazin-1-yl)ethyl)amino)methylene) cyclohexane-1,3-dione] | < 3 |
| O=C1CC(c2ccccc2)C(C(=O)N2CCOCC2)C(=O)C1=CNCCN1CCN(CCO)CC1 (stereo not drawn) [Compound 190, 2-(((2-(4-(2-hydroxyethyl)piperazin-1-yl)ethyl)amino)methylene)-4-(morpholine-4-carbonyl)-5-phenylcyclo-hexane-1,3-dione] | 15 to 100 |
| CCOC(=O)C1C(=O)/C(=C\NCCN2CCN(CCO)CC2)C(=O)CC1c1ccccc1Br (stereo not drawn) [Compound 191, ethyl-6-(2-bromophenyl)-3-(((2-(4-(2-hydroxyethyl)piperazin-1-yl)ethyl)amino)methylene)-2,4-dioxocyclohexane-1-carboxylate] | < 3 |
| O=C1Nc2ccc(Cl)cc2C(=O)/C1=C/NCCN1CCN(CCO)CC1 [Compound 192, 6-chloro-3-(((2-(4-(2-hydroxyethyl)piperazin-1-yl)ethyl)amino)methylene) quinoline-2,4 (1H,3H)-dione] | 3 to 15 |
| CN1C(=O)/C(=C\NCCN2CCN(CCO)CC2)C(=O)c2ccccc21 [Compound 193, 3-(((2-(4-(2-hydroxyethyl)piperazin-1-yl)ethyl)amino)methylene)-1-methylquinoline-2,4(1H,3H)-dione] | 15 to 100 |
| COc1cccc2c1NC(=O)/C(=C\NCCN1CCN(CCO)CC1)C2=O [Compound 194, 3-(((2-(4-(2-hydroxyethyl)piperazin-1-yl)ethyl)amino)methylene)-8-methoxyquinoline-2,4(1H,3H)-dione] | 15 to 100 |
| O=C1Nc2c(F)cccc2C(=O)/C1=C/NCCN1CCN(CCO)CC1 [Compound 195, 8-fluoro-3-(((2-(4-(2-hydroxyethyl)piperazin-1-yl)ethyl)amino)methylene) quinoline-2,4 (1H,3H)-dione] | 3 to 15 |
| COc1ccc2c(c1)C(=O)/C(=C/NCCN1CCN(CCO)CC1)C(=O)N2 [Compound 196, 3-(((2-(4-(2-hydroxyethyl)piperazin-1-yl)ethyl)amino)methylene)-6-methoxyquinoline-2,4(1H,3H)-dione] | 3 to 15 |
| O=C1Nc2c(cccc2C(F)(F)F)C(=O)/C1=C/NCCN1CCN(CCO)CC1 [Compound 197, 3-(((2-(4-(2-hydroxyethyl)piperazin-1-yl)ethyl)amino)methylene)-8-(trifluoromethyl) quinoline-2,4(1H,3H)-dione] | < 3 |
| O=C1NC(=O)/C(=C\NCCN2CCN(CCO)CC2)S1 [Compound 200, 5-(((2-(4-(2-hydroxyethyl)piperazin-1-yl)ethyl)amino)methylene)thiazolidine-2,4-dione] | 100 to 1000 |

| Structure (SMILES) | IC50 [µM] |
| --- | --- |
| CN(C)C=C1C(=O)C(C)(c2ccccc2)C1=O (stereo not drawn) [Compound 201, 4-((dimethylamino)methylene)-2-methyl-2-phenylcyclobutane-1,3-dione] | 100 to 1000 |
| CN(C)CCCNC=C1C(=O)CC(c2ccccc2)CC1=O (stereo not drawn) [Compound 202, 2-(((3-(dimethylamino)propyl)amino)methylene)-5-phenylcyclohexane-1,3-dione] | 15 to 100 |
| Cc1cccc(CNC=C2C(=O)CC(c3ccccc3)CC2=O)n1 (stereo not drawn) [Compound 203, 2-((((6-methylpyridin-2-yl)methyl)amino)methylene)-5-phenylcyclohexane-1,3-dione] | 3 to 15 |
| O=C1CC(c2ccccc2)CC(=O)C1=CNCc1ccc(Cl)cn1 (stereo not drawn) [Compound 204, 2-((((5-chloropyridin-2-yl)methyl)amino)methylene)-5-phenylcyclohexane-1,3-dione] | 100 to 1000 |
| O=C1CC(c2ccccc2)CC(=O)C1=CNCc1cc2ccccc2[nH]1 (stereo not drawn) [Compound 205, 2-((((1H-indol-2-yl)methyl)amino)methylene)-5-phenylcyclohexane-1,3-dione] | 100 to 1000 |
| CSCCNC=C1C(=O)CC(c2ccccc2)CC1=O (stereo not drawn) [Compound 206, 2-(((2-(methylthio)ethyl)amino)methylene)-5-phenylcyclohexane-1,3-dione] | 15 to 100 |
| C[S+]([O-])CCNC=C1C(=O)CC(c2ccccc2)CC1=O (stereo not drawn) [Compound 207, 2-(((2-(methylsulfinyl)ethyl)amino)methylene)-5-phenylcyclohexane-1,3-dione] | 15 to 100 |
| CS(=O)(=O)CCNC=C1C(=O)CC(c2ccccc2)CC1=O (stereo not drawn) [Compound 208, 2-(((2-(methylsulfonyl)ethyl)amino)methylene)-5-phenylcyclohexane-1,3-dione] | 15 to 100 |
| CN(C)CCNC=C1C(=O)CC(c2ccccc2)C(F)C1=O (stereo not drawn) [Compound 209, 2-(((2-(dimethylamino)ethyl)amino)methylene)-4-fluoro-5-phenylcyclohexane-1,3-dione] | < 3 |
| O=C(O)CNC(=O)CNC=C1C(=O)CC(c2ccccc2)CC1=O (stereo not drawn) [Compound 210, ((2,6-dioxo-4-phenylcyclo-hexylidene)methyl) glycylglycine] | 15 to 100 |
| CC(C)C(=O)N1CCN(CCNC=C2C(=O)CC(c3ccccc3)CC2=O)CC1 (stereo not drawn) [Compound 211, 2-(((2-(4-isobutyrylpiperazin-1-yl)ethyl)amino)methylene)-5-phenylcyclohexane-1,3-dione] | < 3 |
| CC(C)(C)C(=O)N1CCN(CCNC=C2C(=O)CC(c3ccccc3)CC2=O)CC1 (stereo not drawn) [Compound 212, 5-phenyl-2-(((2-(4-pivaloylpiperazin-1-yl)ethyl)amino)methylene) cyclohexane-1,3-dione] | < 3 |
| CC(C)CC(=O)N1CCN(CCNC=C2C(=O)CC(c3ccccc3)CC2=O)CC1 (stereo not drawn) [Compound 213, 2-(((2-(4-(3-methylbutanoyl)piperazin-1-yl)ethyl)amino)methylene)-5-phenylcyclohexane-1,3-dione] | < 3 |
| CN(C)C(=O)N1CCN(CCNC=C2C(=O)CC(c3ccccc3)CC2=O)CC1 (stereo not drawn) [Compound 214, 4-(2-(((2,6-dioxo-4-phenylcyclo-hexylidene)methyl)amino)ethyl)-N,N-dimethylpiperazine-1-carboxamide] | < 3 |
| CCC(=O)N1CCN(CCNC=C2C(=O)CC(c3ccccc3)CC2=O)CC1 (stereo not drawn) [Compound 215, 5-phenyl-2-(((2-(4-propionylpiperazin-1-yl)ethyl)amino)methylene) cyclohexane-1,3-dione] | < 3 |
| O=C1CC(c2ccccc2)CC(=O)C1=CNCCN1CCN(C(=O)c2ccccc2)CC1 (stereo not drawn) [Compound 216, 2-(((2-(4-benzoylpiperazin-1-yl)ethyl)amino)methylene)-5-phenylcyclohexane-1,3-dione] | < 3 |
| O=C1CC(c2ccccc2)CC(=O)C1=CNCCN1CCN(C(=O)c2ccc([N+](=O)[O-])cc2)CC1 (stereo not drawn) [Compound 217, 2-(((2-(4-(4-nitrobenzoyl)piperazin-1-yl)ethyl)amino)methylene)-5-phenylcyclohexane-1,3-dione] | 3 to 15 |
| CS(=O)(=O)N1CCN(CCNC=C2C(=O)CC(c3ccccc3)CC2=O)CC1 (stereo not drawn) [Compound 218, 2-(((2-(4-(methylsulfonyl)piperazin-1-yl)ethyl)amino)methylene)-5-phenylcyclohexane-1,3-dione] | < 3 |
| O=C1CC(c2ccccc2)CC(=O)C1=CNCCN1CCN(C(=O)c2ccc(Cl)cc2)CC1 (stereo not drawn) [Compound 219, 2-(((2-(4-(4-chlorobenzoyl)piperazin-1-yl)ethyl)amino)methylene)-5-phenylcyclohexane-1,3-dione] | < 3 |

Source: patent US11319303B2 (WIGEN BIOMEDICINE TECHNOLOGY (SHANGHAI) CO., LTD., priority 2017, dated 2022)
